Data set [1] deals with IL-23 mediated signalling (Homo sapiens, UniProt Q5VWK5). The data set can be described thus: Functional inhibition of IL-23 mediated STAT3 signalling (phospho-STAT3 MSD) in DB cells. Conditions: for Emax: maximal inhibitory response, read-out: hIL-23 (pSTAT3) antagonist % inhibition. The class given is cell-based. From the text:
Upon binding of IL-23, the IL-23R forms a heterodimer signalling complex together with IL-12R β1, which through the JAK2/STAT3 pathway promotes phosphorylation of STAT3 to form phospho-STAT3.
For compounds tested in this assay, the response was normalized relative to control values to calculate the IC50 and maximal inhibitory response from a concentration response curve of the compound in presence of a fixed concentration of human IL-23.
The assay procedure was as follows. […] Following preincubation of the DB cells with inhibitor for 15 min in a cell incubator (37 °C, 5% CO2), 20 µL of the prepared 3X the EC80 of hIL-23 solution was added to each well and incubated for 90 min in a cell incubator (37 °C, 5% CO2). For some wells buffer only or IL-23 only corresponding to the EC80 was added to obtain readouts needed for normalization. To terminate the assay, the plate was spun at 1000 G for 5 min to pellet cells, the supernatant removed using an 8-channel manual pipette, and then added 50 µL/well Complete Lysis Buffer from the MSD STAT3 kit (Cat# K150SVD, Mesoscale) to the cell pellet. To completely lyse cells to release phospho-STAT3 for detection, the plate was shaken for 10 min at room temperature (500 rpm) sealed with aluminium foil and placed at -80 °C for a minimum of 15 min. Detection of the phospho-STAT3 level in the cell lysate from the individual wells was determined using the MSD STAT3 kit (Cat# K150SVD, Mesoscale) and read on a Meso QuickPlex SQ 120 plate reader (Mesoscale).
For data analysis raw data counts from the Meso QuickPlex SQ 120 plate reader were normalized relative to the response by the EC80 of h1L-23 alone (no compound added) and the buffer level. Compound potency (IC50) and maximal inhibitory response (% inhibition) were estimated by computer-aided curve fitting using a 4-parameter logistic (4PL) nonlinear model. […] Table 3-2: hIL-23 (pSTAT3) antagonist IC50 and % inhibition

Data set [2] is described as follows: Peptide stability in simulated gastric fluid (SGF). The class given is in vitro ADME. In outline:
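Peptide incubated at 37 °C with gentle shaking in SGF (NaCl, pH 1.2). Samples centrifuged, diluted and analysed by LC-HRMS; percent remaining at each timepoint from absolute peak areas relative to time zero, with 4 h as the reference point.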

For the next data set, the target named is T1, human IL-23R (Homo sapiens, UniProt Q5VWK5).
T1 sequence (Q5VWK5 22-629): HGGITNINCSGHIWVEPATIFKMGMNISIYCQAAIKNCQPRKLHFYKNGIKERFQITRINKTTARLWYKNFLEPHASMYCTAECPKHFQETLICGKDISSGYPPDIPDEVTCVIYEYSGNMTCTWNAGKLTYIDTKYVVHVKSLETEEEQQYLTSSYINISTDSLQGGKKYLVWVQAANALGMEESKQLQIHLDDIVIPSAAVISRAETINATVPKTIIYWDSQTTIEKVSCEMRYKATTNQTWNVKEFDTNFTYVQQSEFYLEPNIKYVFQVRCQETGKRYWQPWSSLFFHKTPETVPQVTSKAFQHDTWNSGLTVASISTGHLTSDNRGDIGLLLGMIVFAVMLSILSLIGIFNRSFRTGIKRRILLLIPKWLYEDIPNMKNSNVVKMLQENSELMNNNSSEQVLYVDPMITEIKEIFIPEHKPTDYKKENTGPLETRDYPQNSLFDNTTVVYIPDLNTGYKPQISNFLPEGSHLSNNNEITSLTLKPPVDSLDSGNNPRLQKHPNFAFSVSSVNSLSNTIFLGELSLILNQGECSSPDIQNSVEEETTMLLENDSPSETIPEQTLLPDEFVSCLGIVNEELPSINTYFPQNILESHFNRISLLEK
Nature of the data set: biochemical. In outline:
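Membranes from HEK293 cells stably expressing Nluc-tagged human IL-23R were incubated 2 h at room temperature with test compound and a fluorophore-labelled tracer. After substrate addition, loss of BRET (TAMRA over luciferase emission) reported tracer displacement. A 4PL fit gave IC50 values.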

A short description of data set [3]: Peptide stability in simulated intestinal fluid (SIF). The format is in vitro ADME. Conditions: 37 °C, porcine pancreatin; for remaining at 1 h, 10 µM / remaining at 4 h, 10 µM: pig; for remaining at 4 h, 10 µM: read-out: SIF (% remaining 4 h). In outline: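 Peptides were incubated at 37 °C with gentle shaking in pH 6.8 potassium phosphate SIF containing porcine pancreatin (10 g/L). Supernatants were analysed by LC-HRMS. Percent remaining at each timepoint, including 4 h, was calculated relative to time zero from absolute peak areas.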

Where [4] appears, read: Table 3-2, DB cells, hIL-23 at EC80, read-out: hIL-23 (pSTAT3) antagonist IC50.
Setting [5] is: Table 3-2, DB cells, hIL-23 at EC80.

The values below come from patent EP4471048A1, “PEPTIDE INHIBITORS OF INTERLEUKIN-23 RECEPTOR” (Zealand Pharma A/S, priority 2023, dated 2024).

Read-outs that look alike come from different tables or passages of the source. *1 amine or outer side, *2 acyl side, *3 side chain or, on linkers, in order; H or OH if unused. Where a SMILES comes first, the peptide text is derived from it. Bridges are numbered along the chain shown (N, C = ends). [ ]: non-standard residue; d: D form. 2Nal = N[C@@H](Cc1ccc2ccccc2c1)C(=O)O; AEF = NCCOc1ccc(C[C@H](N)C(=O)O)cc1; X1 = O=C(Cc1ccc(CN[*:1])cc1)[*:2]; 3Pal = N[C@@H](Cc1cccnc1)C(=O)O; αMeL = CC(C)C[C@](C)(N)C(=O)O; CH2COCH2 = O=C(C[*:1])C[*:2]; 3Amb = NCc1cccc(C(=O)O)c1; Dab = NCC[C@H](N)C(=O)O Bounds are passed on as bounds.

`CSCC[C@H](NC(=O)[C@@H]1CSCC(=O)CSC[C@H](NC(=O)[C@@H](N)CCC(=O)O)C(=O)N[C@@H](Cc2c[nH]c3ccccc23)C(=O)N[C@@H](CC(C)C)C(=O)N[C@H]2CSCC(=O)CSC[C@H](NC(=O)[C@H](CC(N)=O)NC(=O)[C@H](CCCNC(=N)N)NC(=O)[C@H](Cc3ccc(O)cc3)NC(=O)[C@H](Cc3ccc(O)cc3)NC2=O)C(=O)N[C@@H](CC(N)=O)C(=O)N1)C(N)=O` (single isomer, unassigned) [I4 (isomer 3), H-EC(4a)WLC(5a)YYRNC(5a)NC(4a)M-[NH2], reference compound]: the half-inhibitory concentration (IC50) (in data set [1] (setting [4]); on human IL-23R) was greater than 1000 nM throughout. Further, the Emax in data set [1] (setting [5]) was 23%. The “SGF (% remaining 1 h)” value in data set [2] (10 µM, 37 °C, porcine pepsin, pH 1.2, 1 h) is listed as 99%. Further, the “SGF (% remaining 4 h)” value in data set [2] (10 µM, 37 °C, porcine pepsin, pH 1.2, 4 h) is 99%. The molecule further had a Ki at human IL-23R greater than 1000 nM. Also, the “SIF (% remaining 1 h)” value in data set [3] (10 µM, pH 6.8, 1 h) is given as 0%. In addition, in data set [3] (10 µM, pH 6.8, 4 h), the “SIF (% remaining 4 h)” value is given as 0%.
With `CC(C)C[C@]1(C)NC(=O)[C@H](Cc2ccc3ccccc3c2)NC(=O)[C@H](Cc2ccc(OCCN)cc2)NC(=O)[C@@H]2CSCC(=O)CSC[C@H](NC(=O)[C@H](CO)NC(=O)Cc3ccc(cc3)CNC(=O)CC[C@@H](C(=O)N[C@@H](CCN)C(=O)N[C@@H](Cc3cccnc3)C(N)=O)NC1=O)C(=O)N[C@@H](Cc1c[nH]c3ccccc13)C(=O)N[C@@H](CCC(N)=O)C(=O)N2` [Ref 120, [4-Aminomethyl-phenylacetyl](1c)*SC(2a)WQC(2a)[Y(2-aminoethoxy)][2-Nal][2-Me-Leu]E(1c)[Dab][3-(3-Pyridyl)-Ala]-[NH2], reference compound] ([X1]SCWQC[AEF][2Nal][αMeL]E[Dab][3Pal]-NH2; linker 3-6 via CH2COCH2; lactam N-10), the IC50 in data set [1] was found to be 0.054 nM; against human IL-23R, 0.011 nM. In data set [1] (setting [5]), the Emax turned out to be 101%. The fraction remaining at 1 h, 10 µM in data set [2] (pig, simulated gastric fluid, pH 1.2, SGF (% remaining 1 h)) was 84%; in data set [3] (pH 6.8, 1 h), 82%. Further, the share remaining at 4 h, 10 µM was 81% in data set [2] (pig, simulated gastric fluid, pH 1.2, SGF (% remaining 4 h)) and 39% in data set [3] (pH 6.8, 4 h). Also, the “% displacement (hIL-23R NIuc)” value on human IL-23R was 94%. This molecule also gave a Ki at human IL-23R of 0.00938 nM.
`CC(C)C[C@]1(C)NC(=O)[C@H](Cc2ccc3ccccc3c2)NC(=O)[C@H](Cc2ccc(OCCN)cc2)NC(=O)[C@@H]2CSCC(=O)CSC[C@H](NC(=O)[C@H](CO)NC(=O)Cc3ccc(cc3)CNC(=O)CC[C@@H](C(=O)N[C@@H](CO)C(N)=O)NC1=O)C(=O)N[C@@H](Cc1c[nH]c3ccccc13)C(=O)N[C@@H](CCC(N)=O)C(=O)N2` [Ref 81, [4-Aminomethyl-phenylacetyl](1c)*SC(2a)WQC(2a)[Y(2-aminoethoxy)][2-Nal][2-Me-Leu]E(1c)S-[NH2], reference compound]: in data set [1] (setting [4]), the IC50 stood at 21 nM. For the same molecule, in data set [1] (setting [5]), the Emax came out at 95%. Also, at human IL-23R, the “% displacement (hIL-23R NIuc)” value worked out at 101%, the IC50 worked out at 0.39 nM and affinity was put at a Ki of 0.318 nM. In data set [3] (pH 6.8, 1 h), this molecule displayed a share remaining at 1 h, 10 µM of 99%. In addition, the fraction remaining at 4 h, 10 µM in data set [3] (pH 6.8, 4 h) is 77%.
For `CC(C)C[C@]1(C)NC(=O)[C@H](Cc2ccc3ccccc3c2)NC(=O)[C@H](Cc2ccc(OCCN)cc2)NC(=O)[C@@H]2CSCC(=O)CSC[C@H](NC(=O)[C@H](CO)NC(=O)c3cccc(c3)CNC(=O)CC[C@@H](C(=O)N[C@@H](CCCNC(=N)N)C(=O)N[C@@H](Cc3cccnc3)C(N)=O)NC1=O)C(=O)N[C@@H](Cc1c[nH]c3ccccc13)C(=O)N[C@@H](CCC(N)=O)C(=O)N2` [Ref 78, [(3-Aminomethyl)benzoyl](1c)*SC(2a)WQC(2a)[Y(2-aminoethoxy)][2-Nal][2-Me-Leu]E(1c)R[3-(3-Pyridyl)-Ala]-[NH2], reference compound] ([3Amb]SCWQC[AEF][2Nal][αMeL]ER[3Pal]-NH2; linker 3-6 via CH2COCH2; lactam N-10), the IC50 in data set [1] (setting [4]) was determined as 0.13 nM. Besides, the Emax in data set [1] (setting [5]) worked out at 100%. On human IL-23R, the “% displacement (hIL-23R NIuc)” value is recorded as 100%, it took 0.025 nM to reach half-maximal inhibition (IC50) and the Ki was 0.0205 nM. The amount remaining at 1 h, 10 µM in data set [3] (pH 6.8, 1 h) was 5%. Also, in data set [3] (pH 6.8, 4 h), the amount remaining at 4 h, 10 µM was 0%.
For `CC(C)C[C@]1(C)NC(=O)[C@H](Cc2ccc3ccccc3c2)NC(=O)[C@H](Cc2ccc(OCCN)cc2)NC(=O)[C@@H]2CSCC(=O)CSC[C@H](NC(=O)[C@H](CO)NC(=O)Cc3ccc(cc3)CNC(=O)CC[C@@H](C(=O)N[C@@H](CCN)C(N)=O)NC1=O)C(=O)N[C@@H](Cc1c[nH]c3ccccc13)C(=O)N[C@@H](CCC(N)=O)C(=O)N2` [Ref 82, [4-Aminomethyl-phenylacetyl](1c)*SC(2a)WQC(2a)[Y(2-aminoethoxy)][2-Nal][2-Me-Leu]E(1c)[Dab]-[NH2], reference compound] ([X1]SCWQC[AEF][2Nal][αMeL]E[Dab]-NH2; linker 3-6 via CH2COCH2; lactam N-10), the IC50 in data set [1] (setting [4]) turned out to be 11 nM. The Emax in data set [1] (setting [5]) was determined as 97%. Also, on human IL-23R, the “% displacement (hIL-23R NIuc)” value was 103%, the IC50 turned out to be 0.082 nM and affinity was put at a Ki of 0.0665 nM. Besides, the share remaining at 1 h, 10 µM in data set [3] (pH 6.8, 1 h) was 95%. Moreover, the amount remaining at 4 h, 10 µM in data set [3] (pH 6.8, 4 h) was 77%.
With `CC(C)C[C@]1(C)NC(=O)[C@H](Cc2ccc3ccccc3c2)NC(=O)[C@H](Cc2ccc(OCCN)cc2)NC(=O)[C@@H]2CSCC(=O)CSC[C@H](NC(=O)[C@H](CO)NC(=O)Cc3ccc(cc3)CNC(=O)CC[C@@H](C(=O)N[C@H](CCCNC(=N)N)C(N)=O)NC1=O)C(=O)N[C@@H](Cc1c[nH]c3ccccc13)C(=O)N[C@@H](CCC(N)=O)C(=O)N2` [Ref 80, [4-Aminomethyl-phenylacetyl](1c)*SC(2a)WQC(2a)[Y(2-aminoethoxy)][2-Nal][2-Me-Leu]E(1c)[{d}R]-[NH2], reference compound] ([X1]SCWQC[AEF][2Nal][αMeL]E[dR]-NH2; linker 3-6 via CH2COCH2; lactam N-10), the IC50 in data set [1] (setting [4]) was 11 nM. The Emax in data set [1] (setting [5]) was determined as 97%. Also, on human IL-23R, the “% displacement (hIL-23R NIuc)” value was determined as 98%, half-maximal inhibition (IC50) was put at 0.18 nM and the Ki worked out at 0.15 nM. Also, the amount remaining at 1 h, 10 µM in data set [3] (pH 6.8, 1 h) is 84%. Moreover, the amount remaining at 4 h, 10 µM in data set [3] (pH 6.8, 4 h) is 86%.
